Consider 36 compounds from EP0661271B1, “AZEPINE DERIVATIVES, PRODUCTION THEREOF, AND USE THEREOF AS SIGMA-RECEPTOR LIGANDS” (Asahi Kasei Kogyo Kabushiki Kaisha, priority 1992, dated 1994).

The test system of assay [1] is apomorphine induced climbing. The assay can be described thus: Suppressive activity on apomorphine induced climbing in mice. The format is in vivo. Conditions: 30 minutes before apomorphine 2 mg/kg s.c., ICR mice; for Suppression rate (mg/kg, p.o): apomorphine single administered group = 100 %. The procedure: Administering dopamine agonist, apomorphine in mouse resulted various abnormal movings, and especially, a climbing the cage has been known to be correlated with human schizophrenia.
Compounds of the present invention were administered orally or intraperitoneally in ICR mice, male (Charles River Corp.), and after 30 minutes apomorphine 2 mg/kg was administered subcutaneously. Climbing behaviors of 3 minutes after 20-23 minutes of apomorphine administration were observed. Climbing behavior was observed by entering the mice in stainless steel made wire netting cage and measuring a time remaining above the upper part of half part of the cage at observing. A climbing time of apomorphine single administered group is set as 100 % and shortened time by administering the drug is shown in suppression rate.

The target of a further assay is σ-receptor. The assay can be described thus: Binding activity for σ-receptor, [3H]DTG displacement in rat brain membrane preparation. Set-up: species or system Sprague-Dowley rat. To be noted: for pKi: rat whole brain (except cerebella) membrane, [3H]DTG 3 nM, 25°C 60 minutes, compounds tested as hydrochloride, read-out: Sigma [^3H] DTG Ki.

By pKd is commonly meant the Kd on a negative log10 scale, so that one unit is a factor of ten. What is called pKi is −log10 of the Ki, conventionally taken in molar units.

pKd, pKi: −log10 of the molar value.

Take `CN(C)CCCN1c2ccccc2Sc2ccc(Cl)cc21` [Chlorpromazine, reference compound]: the “Suppression (mg/kg, i.p.)” value in assay [1] (1 mg/kg i.p.) is 40 % (1).

As for `Cc1ccccc1NC(=N)Nc1ccccc1C` [DTG, 1,3-di(2-tolyl) guanidine, reference compound], the pKd at σ-receptor (radioligand constant used to calculate Ki, read-out: Kd, affinity of radioactive ligand for receptor) was 7.97.

As to `CC1(C)C2CC[C@]1(C)CN(CCC13CC4CC(CC(C4)C1)C3)C2` [Example 1, (1S)-3-[2-(1-adamantyl)ethyl]-1,8,8-trimethyl-3-azabicyclo [3.2.1] octane], the “Suppression rate (mg/kg, p.o)” value in assay [1] (30 mg/kg p.o.) is 37 % (30). For the same compound, the negative-log Ki (pKi) on σ-receptor was 9.59.

Regarding `CC1(C)C2CC[C@]1(C)CN(CCC1CCCC1)C2` [Example 3, (1S)-3-(2-cyclopentylethyl)-1,8,8-trimethyl-3-azabicyclo[3.2.1] octane], the negative logarithm of the Ki (pKi) on σ-receptor was 9.28.

Take `CC1(C)C2CC[C@]1(C)CN(CCC1CCCCC1)C2` [Example 4, (1S)-3-(2-cyclohexylethyl)-1,8,8-trimethyl-3-azabicyclo[3.2.1] octane]: the pKi on σ-receptor was 9.55.

`CC1(C)C2CC[C@@]1(C)CN(CCC1CCCCC1)C2` [Example 6, (1R)-3-(2-cyclohexylethyl)-1,8,8-trimethyl-3-azabicyclo[3.2.1] octane]: the negative-log Ki (pKi) on σ-receptor is 9.80.

Take `CC1(C)C2CC[C@]1(C)CN(CCC1CCCCCC1)C2` [Example 7, (1S)-3-(2-cycloheptylethyl)-1,8,8-trimethyl-3-azabicyclo[3.2.1] octane]: on σ-receptor, the negative logarithm of the Ki (pKi) is 9.24.

For the compound `CC1(C)C2CC[C@]1(C)CN(CCC1CCCCCCC1)C2` [Example 8, (1S)-3-(2-cyclooctylethyl)-1,8,8-trimethyl-3-azabicyclo[3,2,1] octane], the pKi at σ-receptor is 9.30.

Regarding `CC1(C)C2CC[C@]1(C)CN(CCCCC1CCCCC1)C2` [Example 9, (1S)-3-(4-cyclohexyl-1-butyl)-1,8,8-trimethyl-3-azabicyclo[3.2.1] octane], the negative-log Ki (pKi) at σ-receptor was 8.43.

For the compound `CC1(C)C2CC[C@]1(C)CN(CCCC1CCCCC1)C2` [Example 10, (1S)-3-(3-cyclohexylpropyl)-1,8,8-trimethyl-3-azabicyclo[3.2.1] octane], on σ-receptor, the pKi was 9.04.

As to `CC1(C)C2CC[C@]1(C)CN(CC1CCCCC1)C2` [Example 11, (1S)-3-cyclohexylmethyl-1,8,8-trimethyl-3-azabicyclo[3.2.1] octane], the pKi at σ-receptor is 8.44.

Regarding `CC1(C)C2CC[C@@]1(C)CN(CC1CCCCC1)C2` [Example 12, (1R)-3-cyclohexylmethyl-1,8,8-trimethyl-3-azabicyclo[3.2.1] octane], on σ-receptor, the pKi was 8.60.

For the compound `CC1(C)C2CC[C@]1(C)CN(C1CCCCC1)C2` [Example 13, (1S)-3-cyclohexyl-1,8,8-trimethyl-3-azabicyclo[3.2.1] octane], the pKi at σ-receptor is 8.20.

Regarding `CC1(C)C2CC[C@@]1(C)CN(CCC13CC4CC(CC(C4)C1)C3)C2` [Example 14, (1R)-3-[2-(1-adamantyl)ethyl]-1,8,8-trimethyl-3-azabicyclo[3.2.1] octane], the pKi on σ-receptor is 9.49.

On to `CC1(C)C2CC[C@]1(C)CN(CCC1C3CC4CC(C3)CC1C4)C2` (stereo partly drawn) [Example 15, (1S)-3-[2-(2-adamantyl)ethyl]-1,8,8-trimethyl-3-azabicyclo[3.2.1] octane], for which the “Suppression rate (mg/kg, p.o)” value in assay [1] (10 mg/kg p.o.) is 78 % (10). Further, at σ-receptor, the pKi is 9.49.

With `CC1(C)C2CC[C@@]1(C)CN(CCC1C3CC4CC(C3)CC1C4)C2` (stereo partly drawn) [Example 16, (1R)-3-[2-(2-adamantyl)ethyl]-1,8,8-trimethyl-3-azabicyclo [3.2.1] octane], in assay [1] (30 mg/kg p.o.), the “Suppression rate (mg/kg, p.o)” value is reported as 79 % (30). Besides, the pKi at σ-receptor was 9.39.

Consider `CC1CCC(CCN2CC3CC[C@](C)(C2)C3(C)C)CC1` (stereo partly drawn) [Example 18, (1S)-3-[2-(4-methylcyclohexyl)ethyl]-1,8,8-trimethyl-3-azabicyclo [3.2.1] octane], for which the negative logarithm of the Ki (pKi) at σ-receptor is 8.65.

Turning to `CC12CC3CC(C1)CC(CCN1CC4CC[C@](C)(C1)C4(C)C)(C3)C2` [Example 19, (1S)-3-[2-(3-methyl-1-adamantyl)ethyl]-1,8,8-trimethyl-3-azabicyclo [3.2.1] octane], the negative logarithm of the Ki (pKi) on σ-receptor is 9.06.

Regarding `CC1(C)[C@H]2CC[C@]1(C)CN(CC13CC4CC(CC1C4)C3)C2` [Example 20, (1S)-3-(3-noradamantylmethyl)-1,8,8-trimethyl-3-azabicyclo[3.2.1] octane], the negative-log Ki (pKi) on σ-receptor was 8.38.

With `CC1(C)C2CC[C@]1(C)CN(CCC1C3CCCC1CCC3)C2` (stereo partly drawn) [Example 21, (1S)-3-[2-(bicyclo [3.3.1]nonan-9-yl)-1-ethyl]-1,8,8-trimethyl-3-azabicyclo [3.2.1] octane], in assay [1] (30 mg/kg p.o.), the “Suppression rate (mg/kg, p.o)” value is given as 54 % (30). At σ-receptor, the negative-log Ki (pKi) is 9.06.

As to `CC1(C)C2CC[C@]1(C)CN(CCC1C3CC4CC1CC(O)(C4)C3)C2` (stereo partly drawn) [Example 23, (1S)-3-[2-(5-hydroxy-2-adamantyl)ethyl]-1,8,8-trimethyl-3-azabicyclo [3.2.1] octane], the “Suppression rate (mg/kg, p.o)” value in assay [1] (10 mg/kg p.o.) was 69 % (10). Also, at σ-receptor, the pKi was 9.36.

With `COC12CC3CC(C1)C(CCN1CC4CC[C@](C)(C1)C4(C)C)C(C3)C2` (stereo partly drawn) [Example 24, (1S)-3-[2-(5-methoxy-2-adamantyl)ethyl]-1,8,8-trimethyl-3-azabicyclo [3.2.1] octane], in assay [1] (10 mg/kg p.o.), the “Suppression rate (mg/kg, p.o)” value is 78 % (10). Also, the pKi on σ-receptor was 9.17.

`CC1(C)C2CC[C@]1(C)CN(CCC1C3CC4CC1CC(Cl)(C4)C3)C2` (stereo partly drawn) [Example 25, (1S)-3-[2-(5-chloro-2-adamantyl)ethyl]-1,8,8-trimethyl-3-azabicyclo [3.2.1] octane]: the “Suppression rate (mg/kg, p.o)” value in assay [1] (30 mg/kg p.o.) was 43 % (30). The negative-log Ki (pKi) at σ-receptor is 9.24.

For the compound `CC1(C)C2CC[C@]1(C)CN(CCC1C3CC4CC(C3)C(O)C1C4)C2` (stereo partly drawn) [Example 27, (1S)-3-[2-(4-hydroxy-2-adamantyl)ethyl]-1,8,8-trimethyl-3-azabicyclo [3.2.1] octane], the negative logarithm of the Ki (pKi) on σ-receptor is 8.80.

On to `CC1(C)C2CC[C@]1(C)CN(CCC1C3CC4CC(C3)C(c3ccccc3)C1C4)C2` (stereo partly drawn) [Example 28, (1S)-3-[2-(4-phenyl-2-adamantyl)ethyl]-1,8,8-trimethyl-3-azabicyclo [3.2.1] octane], for which the “Suppression rate (mg/kg, p.o)” value in assay [1] (30 mg/kg p.o.) is 74 % (30).

As to `CC1(C)C2CC[C@@]1(C)CN(CCc1cccc3ccccc13)C2` [Example 45, (1R)-3-[2-(1-naphthyl)ethyl]-1,8,8-trimethyl-3-azabicyclo [3.2.1] octane], the negative-log Ki (pKi) on σ-receptor is 8.65.

As to `CC1(C)C2CC[C@@]1(C)CN(CCc1ccc3ccccc3c1)C2` [Example 46, (1R)-3-[2-(2-naphthyl)ethyl]-1,8,8-trimethyl-3-azabicyclo [3.2.1] octane], the “Suppression (mg/kg, i.p.)” value in assay [1] (10 mg/kg i.p.) is given as 45 % (10). For the same compound, on σ-receptor, the negative logarithm of the Ki (pKi) was 8.07.

For the compound `CC1(C)C2CC[C@@]1(C)CN(CCc1ccccn1)C2` [Example 47, (1R)-3-[2-(2-pyridyl)ethyl]-1,8,8-trimethyl-3-azabicyclo [3.2.1] octane], on σ-receptor, the negative-log Ki (pKi) is 7.79.

Regarding `CC1(C)[C@@H]2CC[C@@]1(C)CN(CCc1ccncc1)C2` [Example 48, (1R)-3-[2-(4-pyridyl) ] ethyl-1,8,8-trimethyl-3-azabicyclo [3.2.1] octane], the pKi on σ-receptor was 7.82.

For `CC1(C)[C@H]2CC[C@]1(C)CN(CCc1cccc3ccccc13)C2` [Example 49, (1S)-3-[2-(1-naphtyl)ethyl]-1,8,8-trimethyl-3-azabicyclo-[3.2.1] octane], the pKi at σ-receptor was 8.05.

Take `CC1(C)C2CC[C@]1(C)CN(CCc1ccc3ccccc3c1)C2` [Example 50, (1S)-3-[2-(2-naphthyl)ethyl]-1,8,8-trimethyl-3-azabicyclo [3.2.1] octane]: the “Suppression (mg/kg, i.p.)” value in assay [1] (1 mg/kg i.p.) is 50 % (1). For the same compound, the pKi at σ-receptor was 7.55.

With `CC1(C)C2CC[C@]1(C)CN(CCc1ccccn1)C2` [Example 51, (1S)-3-[2-(2-pyridyl)ethyl]-1,8,8-trimethyl-3-azabicyclo [3.2.1] octane], the negative-log Ki (pKi) on σ-receptor is 7.50.

Turning to `CC1(C)C2CC[C@]1(C)CN(CCc1cccnc1)C2` [Example 52, (1S)-3-[2-(3-pyridyl)ethyl]-1,8,8-trimethyl-3-azabicyclo [3.2.1] octane], the pKi on σ-receptor is 7.10.

Take `CC1(C)C2CC[C@]1(C)CN(CCc1ccncc1)C2` [Example 53, (1S)-3-[2-(4-pyridyl)ethyl]-1,8,8-trimethyl-3-azabicyclo [3.2.1] octane]: the pKi on σ-receptor was 7.67.

On to `CC1(C)C2CC[C@]1(C)CN(CCc1cccs1)C2` [Example 55, (1S)-3-[2-(2-thienyl)ethyl]-1,8,8-trimethyl-3-azabicyclo [3.2.1] octane], for which the negative-log Ki (pKi) at σ-receptor is 8.15.

For “(1S)-3-[2-(1-norbornyl)ethyl]-1,8,8-trimethyl-3-azabicyclo [3,2,1] octane [Example 2]”, the pKi at σ-receptor is 9.41.
